The source of these data is PMC8235719, “New RAD51 Inhibitors to Target Homologous Recombination in Human Cells” (Genes, 2021).

Each structure is given as a SMILES string. In brackets after ≈: the same amount, converted by molar mass. Where two headings read alike, the source gives them in different places.

Series [1] deals with RAD51 foci in U-2 OS IndDR-GFP cells. Set-up: method as in PMID 24971740. The following applies: earlier work; cited from earlier work.
For series [2], the system named is HR in U-2 OS DR-GFP cells. Kind of series: Canonical DR-GFP assay, inhibition of HR. The format is cell-based. The following applies: Homo sapiens, U2OS.
The test system of series [3] is HR in human U-2 OS IndDR-GFP cells. The experiment in a line: Inducible I-SceI DR-GFP assay (IndDR-GFP), inhibition of HR. The following applies: Homo sapiens, U2OS; U-2 OS IndDR-GFP cells; 24 h with compound; ± SD; read-out: IC50, efficiency of HR inhibition in IndDR-GFP assay. The format is cell-based. The procedure: Exponentially growing U-2 OS IndDR-GFP cells were seeded at a density of 2 × 10^5 cells/well into 6-well plates with DMEM media containing 80 µg/mL G418 and indicated concentrations of RAD51i(s). For I-SceI induced samples, the media were supplemented with 0.5 µM Shield1 (Clontech, Mountain View, CA, USA) with 100 nM triamcinolone acetonide (Sigma, St. Louis, MO, USA). After 24 h of incubation, the media were removed, cells were washed with the DMEM, and the incubation continued for 48 h in DMEM containing 100 units/mL penicillin, 100 µg/mL streptomycin, and 80 µg/mL G418. Then, cells were trypsinized, trypsin solution was neutralized with an equal volume of media, and 10% formaldehyde solution in PBS was added for fixation to reach a final concentration of formaldehyde of 3.3%. The yield of GFP-positive cells indicative of HR activity was measured by flow cytometry with the Guava easyCyte system, and the data were analyzed with the InCyte program (Millipore; Burlington, VT, USA).

Series [4] concerns the target T1, HsRAD51 (Homo sapiens, UniProt Q06609).
T1 sequence (Q06609 1-339): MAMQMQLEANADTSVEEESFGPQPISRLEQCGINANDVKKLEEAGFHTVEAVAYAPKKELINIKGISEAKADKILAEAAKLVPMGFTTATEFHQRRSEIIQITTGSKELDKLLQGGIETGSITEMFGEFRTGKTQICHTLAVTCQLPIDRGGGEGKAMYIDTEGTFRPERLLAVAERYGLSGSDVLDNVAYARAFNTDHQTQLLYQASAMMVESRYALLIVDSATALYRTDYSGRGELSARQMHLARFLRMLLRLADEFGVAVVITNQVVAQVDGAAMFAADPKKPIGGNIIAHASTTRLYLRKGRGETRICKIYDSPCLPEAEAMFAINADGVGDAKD
Set-up: method as in PMID 22380680. The following applies: earlier work; cited from earlier work.

In series [5] the target is T1, HsRAD51. Kind of series: Surface plasmon resonance (SPR) binding to immobilized RAD51. The following applies: 25 °C, equilibrium analysis, ± SD, read-out: KD, equilibrium dissociation constant of direct binding to hRAD51. The procedure:
The binding of RAD51i to RAD51 was examined using a ProteOn XPR36 SPR Protein Interaction Array System (Bio-Rad, Hercules, CA, USA) at 25 °C. ProteOn GLH sensor chips were preconditioned with two 10 s pulses of 50 mM NaOH, 100 mM HCl, and 0.5% SDS followed by the system equilibration with the running buffer (20 mM sodium phosphate, 150 mM NaCl, and 0.005% Tween 20, pH 7.4). The surface of a GLH sensorchip was subsequently activated with a 1:100 dilution of a 1:1 mixture of 0.2 M EDC and 0.05 M Sulfo-NHS. Purified HsRAD51 was diluted to 500 µg/mL in 10 mM sodium acetate, pH 5.5, and injected immediately after chip activation across the ligand flow channels at 30 µL/min for 5 min. Unreacted protein was washed out, and the excess of unreacted ester groups on the sensor surface was capped by an injection of 1 M ethanolamine-HCl, pH 8.0, at 5 µL/min for 5 min. A reference surface to correct for nonspecific binding was similarly created by immobilizing an IgG b12 anti-HIV-1 gp120 antibody (IgG b12 anti-HIV-1 gp120; was obtained through the NIH AIDS Reagent Program, Division of AIDS, NIAID, NIH: Anti-HIV-1 gp120 Monoclonal (IgG1 b12) from Drs. Dennis Burton and Carlos Barbas). Serial dilutions of the compounds were prepared in the running buffer supplemented with 8% DMSO and injected at a flow rate of 100 μL/min for a 1 min association phase, followed by a 5 min dissociation phase using the “one-shot kinetics” functionality of the ProteOn instrument. Data were analyzed with ProteOn Manager Software version 3.0 (Bio-Rad; Hercules, CA, USA). The responses from the reference flow cell were subtracted to account for the non-specific binding and injection artifacts. Experiments were repeated at least three times. The equilibrium dissociation constants (KD) for the interactions were calculated in ProteOn Manager Version 3.1.0.6 (Bio-Rad; Hercules, CA, USA) using the equilibrium analysis function.
(In SPR one partner is held on a chip, and binding of the other changes the refractive index at the surface.)

In another series the test system is MDA-MB-231 cells. Kind of series: Cell viability assay (Guava ViaCount flow cytometry), MDA-MB-231. The format is cell-based, human. The following applies: Homo sapiens. The procedure: (§1) For all cell viability experiments, except experiments involving MMS treatment, cells were seeded into the media containing indicated concentrations of tested compounds or corresponding amounts of DMSO in controls. The concentration of DMSO in media was 0.1%. MDA-MB-231 cells were seeded into 24-well plates at 3.5 × 10^4 cells/well for cells for a 4-day treatment or at 5000 cells/well for a 10-day treatment. MCF 10A cells were seeded into 24-well plates at 1.5 × 10^4 cells/well for a 4-day treatment or at 500 cells/well for a 10-day treatment. In the case of 10-day treatments, the media with compounds were renewed twice on the 4th and the 7th days of treatments. After completion of the treatments, cells were harvested, and their viability was determined by flow cytometry with Guava ViaCount reagent (Luminex; Austin, TX USA). Data were analyzed using the Guava ViaCount software (Millipore; Burlington, VT, USA). The IC50 values were calculated using the GraphPad Prism 5 software (San Diego, CA, USA).
Background: In flow cytometry, cells or beads pass a laser one at a time.

A short description of the next series: Solubility in DMSO. The following applies: organic solvent or mixture; in 100% DMSO; read-out: Maximal soluble concentration. The format is physicochemical.
The test system of another series is MCF 10A cells. Kind of series: Cell viability assay (Guava ViaCount flow cytometry), MCF 10A. The following applies: 4-day treatment. The format is cell-based, human. How it is done: as §1

Consider `O=c1c2ccccc2nc(/C=C/c2cccnc2)n1Cc1ccccc1` [B02], for which the “RAD51 foci formation induced by cisplatin” value in series [1] is “disrupts RAD51 foci formation”. Moreover, the results for the IC50 in series [2] and in series [3] were 17.9 ± 3.5 µM and 17.7 ± 3.89 µM, respectively. Also, the “Binding to RAD51 in vitro by SPR” value on HsRAD51 [4] is given as “binds to RAD51 directly in vitro”.
Regarding `O=c1nc(/C=C/c2cccnc2)n(Cc2cccc(Br)c2)c2ccccc12` [m-Br-B02-iso], the IC50 in series [3] was 0.9 ± 0.18 µM. Further, on HsRAD51 [5], the Kd turned out to be 8.4 ± 1.8 µM.
For `O=c1nc(/C=C/c2cccnc2)n(Cc2cccc(I)c2)c2ccccc12` [m-I-B02-iso], the IC50 in series [3] was 0.86 ± 0.02 µM.
With `O=c1nc(/C=C/c2cccnc2)n(Cc2ccccc2Br)c2ccccc12` [o-Br-B02-iso], the IC50 in series [3] came to 4.6 ± 1.28 µM.
Same read-out and setting: for `O=c1nc(/C=C/c2cccnc2)n(Cc2ccccc2Cl)c2ccccc12` [o-Cl-B02-iso] the value was 5.56 ± 0.49 µM.
On to `O=C(c1cc(Cc2n[nH]c(=O)c3ccccc23)ccc1F)N1CCN(C(=O)C2CC2)CC1` [olaparib, reference compound], for which the IC50 with MDA-MB-231 cells (MDA-MB-231, 240 h, MDA-MB-231, 10-day treatment, olaparib only (DMSO), read-out: IC50 of olaparib, cell viability) was 8.6 µM; in the series on MDA-MB-231 cells (MDA-MB-231, 240 h, MDA-MB-231 transfected with antiRAD51 siRNA_A, 10 days olaparib, read-out: IC50 of olaparib, cell viability), 3.2 µM; in the series with MDA-MB-231 cells (MDA-MB-231, 240 h, MDA-MB-231 transfected with scrambled siRNA, 10 days olaparib, read-out: IC50 of olaparib, cell viability) it was 6.3 µM.
For `O=c1nc(/C=C/c2cccnc2)n(Cc2ccc(Br)cc2)c2ccccc12` [p-Br-B02-iso], the solubility in the series “Solubility in DMSO” came to 500 µM (≈ 209 µg/mL). Moreover, the IC50 in series [3] worked out at 0.8 ± 0.1 µM.
Consider `O=c1nc(/C=C/c2cccnc2)n(Cc2ccc(I)cc2)c2ccccc12` [p-I-B02-iso], for which the IC50 in series [3] stood at 0.72 ± 0.07 µM; with MDA-MB-231 cells (MDA-MB-231, 96 h, MDA-MB-231, 4-day treatment, read-out: IC50 of cell viability) it was 1.1 µM; in the series with MCF 10A cells (Homo sapiens, 96 h, MCF 10A), 2.7 µM. Also, the Kd on HsRAD51 [5] was 1.4 ± 0.6 µM. The “Times lower sensitivity of MCF 10A compared with MDA-MB-231” value in the series on MCF 10A cells (ratio of IC50) is recorded as “approximately 3”.

For orientation: IC50 means the point on the concentration scale where inhibition reaches its midpoint. Broadly, the Kd is the equilibrium constant for the complex coming apart.
